Measured values published in ChEMBL document CHEMBL5329215, “Review and prospects of targeted therapies for Spleen tyrosine kinase (SYK)” (Bioorg Med Chem, 2023).

Assays:
[1] = molecular target: Tyrosine-protein kinase SYK (Homo sapiens, UniProt P43405); assay: Inhibition of human SYK at Py+3 pocket
[2] = PROTAC activity at E3 ubiquitin ligase (unknown origin)/STAT5 (unknown origin) assessed as […]

O=C(O)CCCCN(CCCC1CCCCC1)S(=O)(=O)/C=C/c1ccc(NC(=O)C2CCC(C(C(=O)O)C(=O)O)CC2)cc1 (configuration not stated) gave an IC50 [1] of 38 µM.

Work on CN(CCCC#Cc1cccc2c1CN(C1CCC(=O)NC1=O)C2=O)C(=O)CCN(C(=O)[C@@H]1CCCN1C(=O)[C@H](NC(=O)c1cc2cc(C(F)(F)P(=O)(O)O)ccc2s1)C(C)(C)C)c1ccc(-c2nccs2)cc1 (some centres not stated) yielded an EC50 [2] of 0.1 µM.
